The values below come from ChEMBL document CHEMBL4823289, “Conformational-Analysis-Guided Discovery of 2,3-Disubstituted Pyridine IDO1 Inhibitors” (ACS Med Chem Lett, 2021).

Data set [1] deals with T1, Indoleamine 2,3-dioxygenase 1 (Homo sapiens, UniProt P14902). Kind of data set: Inhibition of IDO1 in IFNgamma-stimulated human HeLa cells preincubated for 2 hrs followed by recombinant human IFNgamma stimulation and measured after 18 hrs by fluorescence based microplate reader assay.
Data set [2] addresses Indoleamine 2,3-dioxygenase 1 (Mus musculus, UniProt P28776). Kind of data set: Inhibition of IDO1 in IFNgamma-stimulated mouse M109 cells preincubated for 2 hrs followed by recombinant murine IFNgamma stimulation and measured after 18 hrs by fluorescence based microplate reader assay. It is filed as cell-based.
The nature of data set [3]: Metabolic stability in human liver microsomes assessed as parent compound remaining at 0.5 uM after 10 mins incubation by LC-MS/MS analysis relative to control. It counts as ADME, Microsome. The conditions noted are these: read-out: Activity.
The nature of data set [4]: Metabolic stability in mouse liver microsomes assessed as parent compound remaining at 0.5 uM after 10 mins incubation by LC-MS/MS analysis relative to control. It is filed as ADME, Microsome. The conditions noted are these: read-out: Activity.
Data set [5] in a line: Metabolic stability in rat liver microsomes assessed as parent compound remaining at 0.5 uM after 10 mins incubation by LC-MS/MS analysis relative to control. The conditions noted are these: read-out: Activity. It counts as ADME, Microsome.
In data set [6] the target is T1, Indoleamine 2,3-dioxygenase 1. The data set is described as follows: Inhibition of IDO1 in IFNgamma/LPS-stimulated human whole blood preincubated for 4 hrs followed by IFNgamma/LPS stimulation and incubated for 18 hrs by Rapid-fire mass spectrometry analysis. It counts as tissue-based.
The target in data set [7] is Indoleamine 2,3-dioxygenase 1 (Mus musculus) (UniProt P28776). The data set is described as follows: In vivo inhibition of IDO1 in mouse xenografted with human SK-OV-3 cells assessed as reduction in tumor kynurenine AUEC at 60 mg/kg, po QD for 5 days measured up to 24 hrs after dosing relative to control. It counts as functional, organism-based. To be noted: time 5.0 day. The arrangement: scale not given: the % may be the effect or the level left.

Data set [8] can be described thus: AUC (0 to 24 hrs) in human SK-OV-3 cells xenografted in nu/nu mouse xenograft model measured in tumor at 60 mg/kg, po QD. It counts as ADME, organism-based. The arrangement: time < 24 hr, route oral, dose 60 mg/kg.
Data set [9] can be described thus: Protein binding in mouse assessed as free fraction relative to control. It is filed as ADME.
Data set [10] is described as follows: Protein binding in human assessed as free fraction relative to control. It is filed as ADME.

T1 sequence (P14902 whole entry): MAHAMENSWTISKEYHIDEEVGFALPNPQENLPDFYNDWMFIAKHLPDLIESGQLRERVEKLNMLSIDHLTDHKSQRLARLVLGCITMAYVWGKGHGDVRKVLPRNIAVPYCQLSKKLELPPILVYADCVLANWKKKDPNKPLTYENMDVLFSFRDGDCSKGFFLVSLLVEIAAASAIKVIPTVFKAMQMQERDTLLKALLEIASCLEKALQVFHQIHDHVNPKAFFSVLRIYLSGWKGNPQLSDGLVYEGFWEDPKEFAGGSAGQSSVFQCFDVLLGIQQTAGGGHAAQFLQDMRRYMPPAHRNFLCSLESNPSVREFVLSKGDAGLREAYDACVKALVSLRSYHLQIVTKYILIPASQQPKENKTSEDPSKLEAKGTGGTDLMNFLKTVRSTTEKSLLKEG
Sequence of Indoleamine 2,3-dioxygenase 1 (Mus musculus, UniProt P28776) (P28776 whole entry): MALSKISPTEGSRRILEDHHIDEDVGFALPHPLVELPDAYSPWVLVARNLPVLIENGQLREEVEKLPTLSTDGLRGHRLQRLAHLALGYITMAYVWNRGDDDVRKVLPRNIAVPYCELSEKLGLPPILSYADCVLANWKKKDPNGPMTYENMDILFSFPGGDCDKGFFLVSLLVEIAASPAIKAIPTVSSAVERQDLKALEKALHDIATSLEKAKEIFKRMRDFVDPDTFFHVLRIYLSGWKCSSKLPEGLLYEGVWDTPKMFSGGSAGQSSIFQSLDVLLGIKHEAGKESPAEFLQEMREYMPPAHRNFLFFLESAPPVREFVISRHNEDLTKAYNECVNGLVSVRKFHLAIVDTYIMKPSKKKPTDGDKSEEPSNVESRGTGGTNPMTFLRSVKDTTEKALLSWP
Sequence of Indoleamine 2,3-dioxygenase 1 (Mus musculus) (P28776 whole entry, looked up): as the sequence (P28776 whole entry) above

For `CC[C@@H](NC(=O)c1ccc(Cl)cc1)[C@H]1CC[C@@H](c2cccc3c2OC(F)(F)O3)CC1`, the IC50 in data set [1] came to 43 nM; in data set [2], 196 nM. For the same molecule, the remaining at 10 min, 0.5 µM in data set [3] and in data set [4] was 0% in each case.

For the molecule `Cc1c(F)nccc1[C@H]1CC[C@@H]([C@@H](C)NC(=O)c2ccc(Cl)cc2)CC1`, the IC50 was 5 nM in data set [1], 3 nM in [2] and 47 nM in [6]. Besides, the remaining at 10 min, 0.5 µM in [5] came out at 1%; in [3], 0%; in [4], 1%.

In the case of `CC[C@@H](NC(=O)c1ccc(Cl)cc1)[C@H]1CC[C@H](c2cncc(OC)c2)CC1`, the IC50 in [1] worked out at 19 nM; in [2], 31 nM. The remaining at 10 min, 0.5 µM in data set [3] worked out at 80%; in data set [4] it was 28%.

As to `CC[C@@H](NC(=O)c1ccc(Cl)cc1)[C@H]1CC[C@@H](c2ccnc(OC)c2C)CC1`, the IC50 in [1] stood at 2 nM; in data set [2] it was 7 nM; in [6] it was 2.8 nM. The remaining at 10 min, 0.5 µM was found to be 34% in data set [5], 71% in [3] and 15% in data set [4].

Turning to `CC[C@@H](NC(=O)c1ccc(Cl)cc1)[C@H]1CC[C@@H](c2cccnc2OC)CC1`, the values for the IC50 in data set [1] and in data set [2] were 475 nM and over 1000 nM, respectively. Also, the remaining at 10 min, 0.5 µM in [3] was 3%; in data set [4], 1%.

Consider `CC[C@@H](NC(=O)c1ccc(Cl)cc1)[C@H]1CC[C@H](c2ccc(OC(F)F)cc2)CC1`, for which the IC50 in [1] came out at 14 nM; in [2], 75 nM. Besides, the remaining at 10 min, 0.5 µM came out at 94% in data set [3] and 90% in [4].

For `C[C@@H](C(=O)Nc1ccc(Cl)cc1)[C@H]1CC[C@@H](c2ccnc3ccc(F)cc32)CC1`, the Activity in data set [7] is 65%. For the same molecule, the AUC at 24 h in data set [8] was 18 µM·h.

As for `CC[C@@H](NC(=O)c1ccc(Cl)cc1)[C@H]1CC[C@H](c2cccc(C(F)(F)F)n2)CC1`, the concentration for half-maximal inhibition (IC50) in [1] and in data set [2] was 40 nM each time. Moreover, the remaining at 10 min, 0.5 µM was found to be 89% in [3] and 56% in data set [4].

As for `CC[C@@H](NC(=O)c1ccc(Cl)cc1)[C@H]1CC[C@H](c2nccc(OC)n2)CC1`, the IC50 in data set [1] was determined as 80 nM; in data set [2], 193 nM. Moreover, the remaining at 10 min, 0.5 µM in [3] came to 20%; in data set [4], 42%.

On to `Cc1cc([C@H]2CC[C@@H]([C@@H](C)NC(=O)c3ccc(Cl)cc3)CC2)ccn1`, for which the IC50 in [1] turned out to be 12 nM; in [2], 16 nM. Moreover, the remaining at 10 min, 0.5 µM in data set [3] and in [4] was 1% each time.

On to `CC[C@@H](NC(=O)c1ccc(Cl)cc1)[C@H]1CC[C@H](c2cccc(=O)n2C)CC1`, for which the IC50 in data set [1] worked out at 26 nM; in data set [2], 97 nM. The remaining at 10 min, 0.5 µM in [3] was 88%; in data set [4], 65%.

As to `Cc1cnccc1[C@H]1CC[C@@H]([C@@H](C)NC(=O)c2ccc(Cl)cc2)CC1`, the IC50 in [1] is 7 nM; in data set [2], 3 nM. Further, the remaining at 10 min, 0.5 µM is 16% in data set [3] and 15% in data set [4].

Turning to `CC[C@@H](NC(=O)c1ccc(Cl)cc1)[C@H]1CC[C@H](c2cccc(C)n2)CC1`, the IC50 in [1] was 48 nM; in [2], 121 nM. Also, the remaining at 10 min, 0.5 µM in data set [3] was determined as 56%; in data set [4], 8%.

As to `Cc1nccc([C@H]2CC[C@@H]([C@@H](C)NC(=O)c3ccc(Cl)cc3)CC2)c1C`, the IC50 in [1] stood at 4 nM; in data set [2] it was 6 nM. Moreover, the remaining at 10 min, 0.5 µM in data set [3] stood at 30%; in data set [4], 3%.

For `COC[C@@H](NC(=O)c1ccc(Cl)cc1)[C@H]1CC[C@@H](c2ccnc(OC)c2C(F)F)CC1`, the IC50 in [1] stood at 2 nM; in data set [2] it was 11 nM; in [6] it was 4.1 nM. Besides, the remaining at 10 min, 0.5 µM in [5] came out at 35%; in data set [3], 68%; in data set [4], 15%.

Take `CC[C@@H](NC(=O)c1ccc(Cl)cc1)[C@H]1CC[C@@H](c2ccnc(OC)c2F)CC1`: the IC50 in data set [1] turned out to be 3 nM; in data set [2], 22 nM; in data set [6], 11 nM. Moreover, the remaining at 10 min, 0.5 µM in data set [5] was determined as 21%; in [3] it was 68%; in data set [4], 15%.

In the case of `CC[C@@H](NC(=O)c1ccc(Cl)cc1)[C@H]1CC[C@@H](c2ccnc(OC)c2C(F)F)CC1`, the IC50 in data set [1] stood at 2 nM; in data set [2], 6 nM; in [6] it was 4.4 nM. Further, the remaining at 10 min, 0.5 µM in [5] was 57%; in data set [3] it was 85%; in data set [4] it was 30%.

As for `C[C@@H](NC(=O)c1ccc(Cl)cc1)[C@H]1CC[C@@H](c2ccnc3ccc(F)cc32)CC1`, the Activity in data set [9] was under 0.2%; in data set [10], under 0.3%.
